Experimental data from patent US20150274664A1 (MERCK SHARP & DOHME CORP., priority 2012, published 2015).

Molecular target: T1, human GPR119 (Homo sapiens, UniProt Q8TDV5)
T1 construct: expressed in transfected cells; host or cells: HEK293
T1 sequence (Q8TDV5 1-335): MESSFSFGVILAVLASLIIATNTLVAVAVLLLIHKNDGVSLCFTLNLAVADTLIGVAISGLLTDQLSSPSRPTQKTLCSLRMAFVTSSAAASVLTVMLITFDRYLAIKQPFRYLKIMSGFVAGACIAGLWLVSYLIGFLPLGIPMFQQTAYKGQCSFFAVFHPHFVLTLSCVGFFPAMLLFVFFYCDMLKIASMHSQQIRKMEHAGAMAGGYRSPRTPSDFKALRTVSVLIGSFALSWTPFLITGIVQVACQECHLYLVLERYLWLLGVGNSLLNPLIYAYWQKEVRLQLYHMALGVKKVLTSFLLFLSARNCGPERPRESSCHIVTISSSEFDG
Assay: Measurement of GPR119 signaling using LANCE 384-well cAMP kit (LCMP assay)
Type: cell-based
Conditions: HEK293 cells stably transfected with human GPR119
In short: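 HEK293 cells stably expressing human GPR119, in stimulation buffer at pH 7.4 with 100 μM phosphodiesterase inhibitors, exposed to a 10-point compound dilution (2.5% DMSO final) for 45 min. cAMP measured by LANCE TR-FRET at 665 nm against a cAMP standard curve, normalized between DMSO basal and an internal agonist maximum, with a 4-parameter fit.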

Row | EC50 | Structure (SMILES)
1 | 6.3 nM | CC1(OC(=O)N2CCC([C@H]3C[C@@H]3CCOc3ccc(CC(=O)N4CCC4)cc3F)CC2)CC1 [Example 98, 1-methylcyclopropyl 4-((1R,2R)-2-(2-(4-(2-(azetidin-1-yl)-2-oxoethyl)-2-fluorophenoxy)ethyl)cyclopropyl)piperidine-1-carboxylate]
2 | 8.8 nM | CN(C)C(=O)Cc1ccc(OCC[C@@H]2C[C@H]2C2CCN(C(=O)OC3(C)CC3)CC2)cc1F [Example 99, 1-methylcyclopropyl 4-((1S,2S)-2-(2-(4-(2-(dimethylamino)-2-oxoethyl)-3-fluorophenoxy)ethyl)cyclopropyl)piperidine-1-carboxylate]
3 | 5.5 nM | CN(C)C(=O)Cc1ccc(OCC[C@H]2C[C@@H]2C2CCN(C(=O)OC3(C)CC3)CC2)cc1F [Example 100, 1-methylcyclopropyl 4-((1R,2R)-2-(2-(4-(2-(dimethylamino)-2-oxoethyl)-3-fluorophenoxy)ethyl)cyclopropyl)piperidine-1-carboxylate]
4 | 2 nM | CC1(OC(=O)N2CCC([C@@H]3C[C@H]3CCOc3cc(F)c(CC(=O)N4CCC4)c(F)c3)CC2)CC1 [Example 101, 1-methylcyclopropyl 4-((1S,2S)-2-(2-(4-(2-(azetidin-1-yl)-2-oxoethyl)-3,5-difluorophenoxy)ethyl)cyclopropyl)piperidine-1-carboxylate]
5 | 2.1 nM | CN(C)C(=O)Cc1c(F)cc(OCC[C@@H]2C[C@H]2C2CCN(C(=O)OC3(C)CC3)CC2)cc1F [Example 102, 1-methylcyclopropyl 4-((1S,2S)-2-(2-(4-(2-(dimethylamino)-2-oxoethyl)-3,5-difluorophenoxy)ethyl)cyclopropyl)piperidine-1-carboxylate]
6 | 0.7 nM | CC1(OC(=O)N2CCC([C@H]3C[C@@H]3CCOc3cc(F)c(CC(=O)N4CCC4)c(F)c3)CC2)CC1 [Example 103, 1-methylcyclopropyl 4-((1R,2R)-2-(2-(4-(2-(azetidin-1-yl)-2-oxoethyl)-3,5-difluorophenoxy)ethyl)cyclopropyl)piperidine-1-carboxylate]
7 | 0.69 nM | CN(C)C(=O)Cc1c(F)cc(OCC[C@H]2C[C@@H]2C2CCN(C(=O)OC3(C)CC3)CC2)cc1F [Example 104, 1-methylcyclopropyl 4-((1R,2R)-2-(2-(4-(2-(dimethylamino)-2-oxoethyl)-3,5-difluorophenoxy)ethyl)cyclopropyl)piperidine-1-carboxylate]
8 | 15 nM | CC1(OC(=O)N2CCC([C@@H]3C[C@H]3CCOc3ccc(-n4cnnn4)c(F)c3)CC2)CC1 [Example 105, 1-methylcyclopropyl 4-((1S,2S)-2-(2-(3-fluoro-4-(1H-tetrazol-1-yl)phenoxy)ethyl)cyclopropyl)piperidine-1-carboxylate]
9 | 14 nM | CC1(OC(=O)N2CCC([C@H]3C[C@@H]3CCOc3ccc(-n4cnnn4)c(F)c3)CC2)CC1 [Example 106, 1-methylcyclopropyl 4-((1R,2R)-2-(2-(3-fluoro-4-(1H-tetrazol-1-yl)phenoxy)ethyl)cyclopropyl)piperidine-1-carboxylate]
10 | 17 nM | CC1(OC(=O)N2CCC([C@H]3C[C@@H]3CCOc3ccc(-n4cnnn4)cc3F)CC2)CC1 [Example 107, 1-methylcyclopropyl 4-((1R,2R)-2-(2-(2-fluoro-4-(1H-tetrazol-1-yl)phenoxy)ethyl)cyclopropyl)piperidine-1-carboxylate]
11 | 24 nM | CC1(OC(=O)N2CCC([C@@H]3C[C@H]3CCOc3ccc(CC(=O)N4CCC4)cc3F)CC2)CC1 [Example 108, 1-methylcyclopropyl 4-((1S,2S)-2-(2-(4-(2-(azetidin-1-yl)-2-oxoethyl)-2-fluorophenoxy)ethyl)cyclopropyl)piperidine-1-carboxylate]
12 | 22 nM | CS(=O)(=O)c1ccc(OCC[C@H]2C[C@@H]2C2CCN(c3ncc(Cl)cn3)CC2)nc1 [Example 109, 5-chloro-2-(4-((1R,2R)-2-(2-(5-(methylsulfonyl)pyridin-2-yloxy)ethyl)cyclopropyl)piperidin-1-yl)pyrimidine]
13 | 18 nM | CC(C)c1noc(N2CCC([C@H]3C[C@@H]3CCOc3ccc(S(C)(=O)=O)cn3)CC2)n1 [Example 110, 3-isopropyl-5-(4-((1R,2R)-2-(2-(5-(methylsulfonyl)pyridin-2-yloxy)ethyl)cyclopropyl)piperidin-1-yl)-1,2,4-oxadiazole]
14 | 17 nM | CCS(=O)(=O)c1ccc(OCC[C@@H]2C[C@H]2C2CCN(c3nc(C(C)C)no3)CC2)nc1 [Example 111, 5-(4-((1S ,2S)-2-(2-((5-(ethylsulfonyl)pyridin-2-yl)oxy)ethyl)cyclopropyl)piperidin-1-yl)-3-isopropyl-1,2,4-oxadiazole]
15 | 10 nM | CCc1cnc(N2CCC([C@H]3C[C@@H]3CCOc3ccc(CC(=O)N4CCC4)cn3)CC2)nc1 [Example 115, 1-(azetidin-1-yl)-2-(6-(2-((1R,2R)-2-(1-(5-ethylpyrimidin-2-yl)piperidin-4-yl)cyclopropyl)ethoxy)pyridin-3-yl)ethanone]
16 | 9.7 nM | CCc1cnc(N2CCC([C@@H]3C[C@H]3CCOc3ccc(CC(=O)N4CCC4)cn3)CC2)nc1 [Example 116, 1-(azetidin-1-yl)-2-(6-(2-((1S,2S)-2-(1-(5-ethylpyrimidin-2-yl)piperidin-4-yl)cyclopropyl)ethoxy)pyridin-3-yl)ethanone]
17 | 12 nM | CCc1cnc(N2CCC([C@H]3C[C@@H]3CCOc3cc(F)cc(F)c3CC(=O)N(C)C)CC2)nc1 [Example 117, 2-(2-(2-((1R,2R)-2-(1-(5-ethylpyrimidin-2-yl)piperidin-4-yl)cyclopropyl)ethoxy)-4,6-difluorophenyl)-N,N-dimethylacetamide]
18 | 17 nM | CCc1cnc(N2CCC([C@@H]3C[C@H]3CCOc3cc(F)cc(F)c3CC(=O)N3CCC3)CC2)nc1 [Example 118, 1-(azetidin-1-yl)-2-(2-(2-((1S,2S)-2-(1-(5-ethylpyrimidin-2-yl)piperidin-4-yl)cyclopropyl)ethoxy)-4,6-difluorophenyl)ethanone]
19 | 17 nM | CCc1cnc(N2CCC([C@H]3C[C@@H]3CCOc3cc(F)cc(F)c3CC(=O)N3CCC3)CC2)nc1 [Example 119, 1-(azetidin-1-yl)-2-(2-(2-((1R,2R)-2-(1-(5-ethylpyrimidin-2-yl)piperidin-4-yl)cyclopropyl)ethoxy)-4,6-difluorophenyl)ethanone]
20 | 21 nM | CC1(OC(=O)N2CCC([C@@H]3C[C@H]3CCOc3ccc(CC(=O)N4CCC4)cn3)CC2)CC1 [Example 120, 1-methylcyclopropyl 4-((1S,2S)-2-(2-(5-(2-(azetidin-1-yl)-2-oxoethyl)pyridin-2-yloxy)ethyl)cyclopropyl)piperidine-1-carboxylate]
21 | 24 nM | CC(C)c1noc(N2CCC([C@@H]3C[C@H]3CCOc3ccc(CC(=O)N4CCC4)cn3)CC2)n1 [Example 121, 1-(azetidin-1-yl)-2-(6-(2-((1S,2S)-2-(1-(3-isopropyl-1,2,4-oxadiazol-5-yl)piperidin-4-yl)cyclopropyl)ethoxy)pyridin-3-yl)ethanone]
22 | 20 nM | CC(C)c1noc(N2CCC([C@H]3C[C@@H]3CCOc3cc(F)cc(F)c3CC(=O)N(C)C)CC2)n1 [Example 122, 2-(2,4-difluoro-6-(2-((1R,2R)-2-(1-(3-isopropyl-1,2,4-oxadiazol-5-yl)piperidin-4-yl)cyclopropyl)ethoxy)phenyl)-N,N-dimethylacetamide]
23 | 10 nM | Clc1cnc(N2CCC([C@H]3C[C@@H]3CCNc3ncc(-n4cnnn4)cn3)CC2)nc1 [Example 123, N-(2-((1R,2S)-2-(1-(5-chloropyrimidin-2-yl)piperidin-4-yl)cyclopropyl)ethyl)-5-(1H-tetrazol-1-yl)pyrimidin-2-amine]
24 | 18 nM | CCc1cnc(N2CCC([C@H]3C[C@@H]3CCNc3ncc(-n4cnnn4)cn3)CC2)nc1 [Example 125, N-(2-((1R,2S)-2-(1-(5-ethylpyrimidin-2-yl)piperidin-4-yl)cyclopropyl)ethyl)-5-(1H-tetrazol-1-yl)pyrimidin-2-amine]
25 | 16 nM | CC(C)c1noc(N2CCC([C@@H]3C[C@H]3CCNc3ncc(-n4cnnn4)cn3)CC2)n1 [Example 126, N-(2-((1S,2R)-2-(1-(3-isopropyl-1,2,4-oxadiazol-5-yl)piperidin-4-yl)cyclopropyl)ethyl)-5-(1H-tetrazol-1-yl)pyrimidin-2-amine]
